{"source": "paper PMC3027353", "about": "(Journal of nuclear medicine : official publication, Society …, 2010)", "key": {"TSPO [1]": {"target": "T1, TSPO (Rattus norvegicus, UniProt P16257)", "T1 sequence (P16257 whole entry)": "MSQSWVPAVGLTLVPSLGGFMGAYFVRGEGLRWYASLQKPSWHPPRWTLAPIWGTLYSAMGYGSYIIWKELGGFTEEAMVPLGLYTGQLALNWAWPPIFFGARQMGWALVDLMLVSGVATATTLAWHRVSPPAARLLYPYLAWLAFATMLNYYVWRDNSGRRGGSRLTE", "experiment": "Radioligand displacement of [^3H]PK 11195 by PBR06 in C6 glioma cell lysate", "type": "binding", "settings": "C6 glioma cell line homogenates/lysate; non-linear regression; triplicate"}, "TSPO [2]": {"target": "T1, TSPO", "settings": "cited from earlier work"}, "TSPO [3]": {"target": "T1, TSPO", "settings": "in vivo"}, "[4]": {"experiment": "HPLC radiometabolite analysis of arterial plasma after [^18F]PBR06 injection", "type": "in vivo, rat"}, "TSPO [5]": {"target": "T1, TSPO", "type": "in vivo", "settings": "for K1/k2: 3-compartment, 4-rate constant model; for VT (total distribution volume): from graphical analysis, N = 4"}}, "note": "Where two headings read alike, the source gives them in different places."}
{"smiles": "COc1ccc(OC)c(CN(C(=O)CF)c2ccccc2Oc2ccccc2)c1", "note": "[PBR06, N-fluoroacetyl-N-(2,5-dimethoxybenzyl)-2-phenoxyaniline]", "values": [{"measurement": "IC50, displacement of [^3H]PK 11195", "setting": "TSPO [1]", "result": "in the nanomolar range"}]}
{"smiles": "CCC(C)N(C)C(=O)c1cc2ccccc2c(-c2ccccc2Cl)n1", "note": "(centres unmarked) [PK 11195]", "values": [{"measurement": "In vitro affinity for TSPO", "setting": "TSPO [2]", "result": "low nanomolar range"}]}
{"smiles": "CN1C(=O)CN=C(c2ccc(Cl)cc2)c2cc(Cl)ccc21", "note": "[Ro5-4864]", "values": [{"measurement": "In vitro affinity for TSPO", "setting": "TSPO [2]", "result": "low nanomolar range"}]}
{"smiles": "COc1ccc(OC)c(CN(C(=O)C[18F])c2ccccc2Oc2ccccc2)c1", "note": "[[^18F]PBR06, ^18F-N-fluoroacetyl-N-(2,5-dimethoxybenzyl)-2-phenoxyaniline]", "values": [{"measurement": "Displaceable binding of [^18F]PBR06 in tumor", "setting": "TSPO [3]", "result": "approximately 75%"}, {"measurement": "Tumor activity after PBR06 injection, as % of peak tumor uptake", "setting": "TSPO [3]", "result": "approximately 25%"}, {"measurement": "Fraction of plasma radioactivity", "setting": "[4]; at 45 min after [^18F]PBR06, 15 min after cold PBR06 infusion", "result": 57, "unit": "%"}, {"measurement": "Fraction of plasma radioactivity", "setting": "[4]; printed 'at 2.8 min' (2 min sample after [^18F]PBR06 injection)", "result": 75, "unit": "%"}, {"measurement": "Fraction of plasma radioactivity", "setting": "[4]; printed 'at 30 min' (25 min sample after [^18F]PBR06 injection)", "result": 38, "unit": "%"}, {"measurement": "K1/k2", "setting": "TSPO [5]; Brain, mean ± S.E., N = 3", "result": "6.164 ± 2.049", "unit": "mL/g"}, {"measurement": "VT (total distribution volume)", "setting": "TSPO [5]; Brain, mean ± S.E.", "result": "13.07 ± 3.901", "unit": "mL/g"}, {"measurement": "k3", "setting": "TSPO [5]; Brain, mean ± S.E., N = 3", "result": "0.0714 ± 0.0261", "unit": "min⁻¹"}, {"measurement": "k4", "setting": "TSPO [5]; Brain, mean ± S.E., N = 3", "result": "0.00945 ± 0.005532", "unit": "min⁻¹"}, {"measurement": "K1/k2", "setting": "TSPO [5]; Tumor, mean ± S.E., N = 3", "result": "5.947 ± 1.982", "unit": "mL/g"}, {"measurement": "VT (total distribution volume)", "setting": "TSPO [5]; Tumor, mean ± S.E.", "result": "63.90 ± 3.400", "unit": "mL/g"}, {"measurement": "k3", "setting": "TSPO [5]; Tumor, mean ± S.E., N = 3", "result": "0.3870 ± 0.1592", "unit": "min⁻¹"}, {"measurement": "Plasma clearance", "setting": "TSPO [5]; after initial spike following tracer injection", "result": "rapidly cleared from plasma"}, {"measurement": "Total radioactivity in tumor tissue relative to normal brain", "setting": "TSPO [5]; last 20 minutes of the 90 min PET scan, C6 glioma-bearing rats", "result": "three- to four-fold higher"}]}
